Measurements reported in patent US12686701B2, “Substitution of histidine with 2-thiohistidine in bioactive peptides” (University of Vermont and State Agricultural College, priority 2021, dated 2026).
“Also recorded” adds a separate entry of the source. *1 amine or outer side, *2 acyl side, *3 side chain or, on linkers, in order; H or OH if unused. Where a SMILES comes first, the peptide text is derived from it. [ ]: non-standard residue; d: D form. X1 = O=C([C@H](Cc1c[nH]c(=S)[nH]1)N[*:1])[*:2]

What was measured:
[1] = ABTS radical scavenging activity (UV-Vis, 734 nm); assay type: biochemical; conditions: for ABTS radical TEAC: Trolox equivalent antioxidant capacity, 10 min, PBS pH 7.2, average of three or more trials, ND = activity too low to be determined, TEAC close to zero; for ability to scavenge ABTS radical (in words): absorbance peak at 734 nm
Method: Measurement of 2,2′-azino-di-[3-ethylbenzthiazoline sulfonate (6)] (ABTS) radical scavenging activity. ABTS scavenging assays were performed according to previously published protocols with some modifications. A 10 mM stock solution of potassium persulfate was prepared in deionized water. A stock solution of ABTS was prepared by dissolving 7 mM ABTS and 2.45 mM potassium persulfate in deionized water. This solution was allowed to incubate at room temperature in the dark for 12-16 h to allow potassium persulfate to oxidize the ABTS. Following oxidation, the solution was a dark blue/green color. This solution was stable in the dark at room temperature for at least 48 h. This solution was diluted with 100 mM phosphate buffered saline, pH 7.2 so that the final absorbance was 0.70±0.02 at 734 nm. Stock solutions for all peptides and for Trolox were prepared in a range from 0.1 mM to 3.2 mM in 100 mM phosphate buffered saline, pH 7.2. To test the ability of Trolox and peptides to reduce the ABTS radical cation, samples were prepared with 990 μL of the diluted ABTS solution and 10 μL of each of the peptide or Trolox stock solutions. For every trial, one sample was prepared with 990 μL ABTS and 10 μL of buffer. The samples were allowed to incubate at room temperature in the dark for 10 min. The spectrophotometer was blanked with 1 mL of 100 mM phosphate buffered saline, pH 7.2 from 200-800 nm. Scans were taken for each of the samples and the change in absorbance at 734 nm was monitored. Every sample was run in triplicate and the results were averaged. The percentage of inhibition of ABTS oxidation was calculated using Equation 2.
[formula] where Acontrol is the absorbance of the control (ABTS and buffer only) and Asample is the absorbance at 734 nm of the test peptide/standard. A Trolox calibration curve was prepared with concentrations ranging from 1-32 μM (FIG. 14). Similar curves were prepared for each of the peptides (FIG. 14). These curves were used to calculate TEAC values for each of the peptides by calculating the ratio of peptide to Trolox to achieve the same percent reduction of ABTS.

[2] = Hydroxyl radical scavenging activity by room temperature EPR (Fenton reaction, DMPO spin trap); assay type: biochemical; conditions: for Hydroxyl Radical RSA (%): all analytes at 1 mM, potassium phosphate pH 7.4, average of three or more trials; for increase in ·OH scavenging ability on substituting 2-thioHis for His: difference of RSA versus His-containing counterpart; for increase in ·OH scavenging ability on substituting 2-thioHis for His / ability to scavenge ·OH (in words): 1 mM
Method: Measurement of hydroxyl radical scavenging activity. Hydroxyl radical scavenging activity of peptides was measured with room temperature EPR spectroscopy according to known methods with some modifications. Hydroxyl radicals were generated by the iron-catalyzed Fenton Haber-Weiss reaction, and the generated hydroxyl radicals were reacted with the nitrone spin trap 5,5-dimethyl-1-pyrroline-N-oxide (DMPO). The resultant DMPO-OH adducts were detectable with EPR spectroscopy. The peptide (1 mM final concentration) was added to a solution containing: 24 mM DMPO, 0.8 mM FeSO4, and 0.8 mM H2O2 in 100 mM potassium phosphate buffer, pH 7.4 in a final reaction volume of 250 μL. This solution was immediately transferred into a 50 μL quartz capillary tube. After 5 min, the EPR spectrum was recorded using a Bruker X-band EPR spectrometer operating at 9.42 GHz. The experimental conditions employed were as follows: magnetic field, 336.5±10 mT; power, 2 mW; modulation amplitude, 2.00 G; time constant, 327.68 ms, modulation frequency, 100 kHz; receiver gain, 30 dB sweep time, 60 s. Trials were performed in triplicate for each peptide. The double integral of the EPR spectra was obtained and used to determine the signal intensity for each sample. The hydroxyl radical scavenging ability was calculated using Equation 3, in which H and H0 are relative peak height of radical signals with and without sample, respectively. [formula]

[3] = DPPH radical scavenging activity (UV-Vis, 517 nm); assay type: biochemical; conditions: for DPPH Radical TEAC: Trolox equivalent antioxidant capacity, 50 μM DPPH, 15 min, pH 7.0, 60:40 ethanol:buffer, ND = activity too low to be determined, TEAC close to zero; for ability to scavenge DPPH radical (in words): absorbance peak at 517 nm
Method: Measurement of 2,2-diphenyl-1-picrylhydrazyl (DPPH) radical scavenging activity. DPPH activity assays were conducted according to procedures known in the art. A 1 mM stock solution of DPPH was prepared by dissolving DPPH in 95% ethanol. Peptide stock solutions were prepared at a concentration of 5 mM in 100 mM potassium phosphate buffer, pH 7.0 for each of the His- and 2-thioHis-containing peptides. 6-hydroxy-2,5,7,8-tetramethylchromane-2-carboxylic acid (Trolox) was used as a standard for antioxidant activity and a positive control. A 5 mM solution of Trolox in 100 mM potassium phosphate, pH 7.0 was prepared. A blank was prepared by mixing 600 μL of 95% ethanol with 400 μL of 100 mM potassium phosphate, pH 7.0 in a cuvette. This solution was used to blank the spectrophotometer from 200-800 nm. In each sample, a 60:40 ratio of ethanol:buffer was maintained. To test the ability of Trolox and the different peptides to reduce DPPH, 50 μM DPPH was combined with different concentrations of peptide or Trolox ranging from 5 μM to 500 μM and the total volume of each sample was adjusted to 1 mL with buffer and ethanol. The samples were allowed to incubate at room temperature in the dark for 15 min, after which each sample was scanned and changes in the absorbance at 517 nm were monitored. Trials were run in triplicate for each of the peptides and Trolox. For every trial, one sample was prepared with only 50 μM DPPH (no peptide or Trolox) to serve as a control. The percentage of inhibition of DPPH oxidation was calculated using Equation 1:
[formula] where Acontrol is the absorbance of the control (DPPH and buffer only) and Asample is the absorbance at 517 nm of the test peptide/standard. A Trolox calibration curve was prepared with concentrations ranging from 5-50 μM (FIG. 13). Similar curves were prepared for each of the peptides (FIG. 13). These curves were used to calculate Trolox equivalent antioxidant capacity (TEAC) values for each of the peptides by calculating the ratio of peptide to Trolox to achieve the same percent reduction of DPPH.

[4] = Low temperature (95 K) EPR of peptide-Cu(II) complexes; assay type: binding; conditions: from EPR spectra, not quantified
Method: Low temperature EPR studies. The ability of each peptide to bind Cu(II) was determined by low temperature (95 K) EPR spectroscopy using the methods known in the art with some modifications. Samples of 200 μM and 400 μM peptide were incubated for 10 min at room temperature with 200 μM CuCl2 in 100 mM potassium phosphate, pH 7.4. Following incubation, aliquots of each sample were transferred into 4 mm inner diameter quartz EPR tubes (Wilmad-LabGlass). The samples were frozen in liquid nitrogen and stored in liquid nitrogen prior to use. Control samples were prepared with only buffer and with 200 μM CuCl2 in potassium phosphate buffer. Low temperature EPR spectra were gathered with a Bruker EPR spectrometer operating at 9.42 GHz with the following parameters: scan range, 6000 G; field set, 3200 G; time constant, 164 ms; scan time, 60 s; modulation amplitude, 7.000 G; modulation frequency, 100 kHz; receiver gain, 30 dB; microwave power, 20 mW; and number of scans, 5.

Row | Compound | ABTS radical TEAC [1] | Hydroxyl Radical RSA (%) [2] [%] | increase in ·OH scavenging ability on substituting 2-thioHis for His [2] [%] | DPPH Radical TEAC [3] | ability to scavenge DPPH radical (in words) [3] | ability to scavenge ·OH (in words) [2] | ability to scavenge ABTS radical (in words) [1] | affinity for / binding of Cu(II) (in words) [4]
1 | NC(Cc1c[nH]c(=S)[nH]1)C(=O)O [2-thioHis, L-2-thiohistidine] | 1.50 ± 0.03 | 56.0 ± 2.1 | 7.5 | 1.00 ± 0.02 | same ability as Trolox | – | – | –
2 | NCCC(=O)N[C@@H](Cc1cnc[nH]1)C(=O)O [Carnosine, H-βAH-OH, reference compound] | – | 31.4 ± 4.2 | – | – | – | not a good ·OH scavenger | – | –
3 | N[C@@H](Cc1c[nH]cn1)C(=O)O [His, histidine] | – | 48.5 ± 7.3 | – | – | – | – | – | –
4 | Cc1c(C)c2c(c(C)c1O)CCC(C)(C(=O)O)O2 (centres unmarked) [Trolox, 6-hydroxy-2,5,7,8-tetramethylchromane-2-carboxylic acid, reference compound] | 1.00 | – | – | 1.00 | – | – | – | –
5 | CC(C)C[C@H](NC(=O)[C@@H]1CCCN1C(=O)CNC(=O)[C@H](CC(C)C)NC(=O)[C@@H]1CCCN1C(=O)CNC(=O)[C@@H](N)Cc1c[nH]c(=S)[nH]1)C(=O)O [thioHGPLGPL, H-thioHGPLGPL-OH] (H-[X1]GPLGPL-OH) | 2.14 ± 0.02 | 59.7 ± 3.0 | 12 | 0.95 ± 0.01 | – | equivalent to 2-thioHis itself | – | –
6 | H-GHK-OH [reference compound] | – | 65.4 ± 0.008 | – | – | only a slight decrease in the DPPH absorbance peak at 517 nm | – | no decrease in the ABTS absorbance peak at 734 nm | –
7 | H-GthioHK-OH | 2.61 ± 0.01 | 97.0 ± 0.3 | 31.6 | 0.95 ± 0.02 | completely reduce the DPPH and ABTS radicals | highest RSA of all compounds tested; also recorded: nearly completely abolishing the signal | completely reduce the DPPH and ABTS radicals; also recorded: slightly higher TEAC value than the other 2-thioHis peptides | –
8 | H-βAthioH-OH [thioHcarnosine] | 2.25 ± 0.05 | 43.5 ± 1.1 | 13 | 0.80 ± 0.01 | – | less than 2-thioHis | – | higher affinity for Cu(II) than carnosine
9 | HGPLGPL [H-HGPLGPL-OH, reference compound] | – | 46.8 ± 1.3 | – | – | – | – | – | –
